Results: US12077503B2, “Substituted cyclic amides and their use as herbicides” (FMC CORPORATION, priority 2015, dated 2024)

Assays:
Assay type in all cases: in vivo
[1] = tested on: pigweed (Amaranthus retroflexus); experiment: Test A preemergence; conditions: Amaranthus retroflexus, pre-emergence, 240 h, preemergence, 0 to 100 scale where 0 is no effect and 100 is complete control, read-out: Pigweed plant response rating; for pest or weed control at 125 g/ha: 125 g ai/ha, visual injury rating, approximately 10 d; for pest or weed control at 500 g/ha: 500 g ai/ha
Kochia (Kochia scoparia) [2] = experiment: Test A preemergence; conditions: Bassia scoparia, pre-emergence, 240 h, preemergence, 0 to 100 scale where 0 is no effect and 100 is complete control, read-out: Kochia plant response rating; for pest or weed control at 125 g/ha: 125 g ai/ha, visual injury rating, approximately 10 d; for pest or weed control at 500 g/ha: 500 g ai/ha
In short: (§1)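 Ratings of 0 (no effect) to 100 (complete control) come from visual comparison with untreated controls roughly 10 d after treatment. Test chemicals, formulated in a non-phytotoxic solvent mixture with surfactant, were applied either as a preemergence directed soil spray on seeded soil or postemergence to one- to two-leaf plants 2 to 10 cm tall.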

[3] = tested on: ragweed (common ragweed, Ambrosia elatior); experiment: Test A preemergence; conditions: Ambrosia artemisiifolia, pre-emergence, 240 h, preemergence, 0 to 100 scale where 0 is no effect and 100 is complete control, read-out: Ragweed plant response rating; for pest or weed control at 125 g/ha: 125 g ai/ha, visual injury rating, approximately 10 d; for pest or weed control at 500 g/ha: 500 g ai/ha
In short: as §1

[4] = tested on: ryegrass, Italian (Italian ryegrass, Lolium multiflorum); experiment: Test A preemergence; conditions: Lolium multiflorum, pre-emergence, 240 h, preemergence, 0 to 100 scale where 0 is no effect and 100 is complete control, read-out: Ryegrass, Italian plant response rating; for pest or weed control at 125 g/ha: 125 g ai/ha, visual injury rating, approximately 10 d; for pest or weed control at 500 g/ha: 500 g ai/ha
In short: as §1

[5] = tested on: barnyardgrass (Echinochloa crus-galli); experiment: Test A preemergence; conditions: Echinochloa crus-galli, pre-emergence, 240 h, preemergence, 0 to 100 scale where 0 is no effect and 100 is complete control, read-out: Barnyardgrass plant response rating; for pest or weed control at 125 g/ha: 125 g ai/ha, visual injury rating, approximately 10 d; for pest or weed control at 500 g/ha: 500 g ai/ha
In short: as §1

[6] = tested on: pigweed (Amaranthus retroflexus); experiment: Test A postemergence; conditions: Amaranthus retroflexus, post-emergence, 240 h, Postemergence; for pest or weed control at 125 g/ha: 125 g ai/ha, visual rating about 10 d after treatment, read-out: Pigweed plant response rating (0 to 100 scale); for pest or weed control at 500 g/ha: 500 g ai/ha, visual injury, 0 to 100 scale (0 no effect, 100 complete control), approx. 10 d, read-out: Plant response rating, Pigweed
In short: as §1

[7] = tested on: giant foxtail (Setaria faberii); experiment: Test A postemergence; conditions: Setaria faberi, post-emergence, 240 h, Postemergence; for pest or weed control at 125 g/ha: 125 g ai/ha, visual rating about 10 d after treatment, read-out: Foxtail, Giant plant response rating (0 to 100 scale); for pest or weed control at 500 g/ha: 500 g ai/ha, visual injury, 0 to 100 scale (0 no effect, 100 complete control), approx. 10 d, read-out: Plant response rating, Foxtail, Giant
In short: as §1

Kochia (Kochia scoparia) [8] = experiment: Test A postemergence; conditions: Bassia scoparia, post-emergence, 240 h, Postemergence; for pest or weed control at 125 g/ha: 125 g ai/ha, visual rating about 10 d after treatment, read-out: Kochia plant response rating (0 to 100 scale); for pest or weed control at 500 g/ha: 500 g ai/ha, visual injury, 0 to 100 scale (0 no effect, 100 complete control), approx. 10 d, read-out: Plant response rating, Kochia
In short: as §1

corn (Zea mays) = experiment: Test A postemergence; conditions: Zea mays, post-emergence, 240 h, Postemergence; for plant injury at 125 g/ha: 125 g ai/ha, visual rating about 10 d after treatment, read-out: Corn plant response rating (0 to 100 scale); for Corn plant response rating (crop injury, 0 = no effect, 100 = complete kill) at 500 g/ha: 500 g ai/ha, visual injury, 0 to 100 scale (0 no effect, 100 complete control), approx. 10 d
In short: as §1

[9] = tested on: wheat (Triticum aestivum); experiment: Test A postemergence; conditions: Triticum aestivum, post-emergence, 240 h, Postemergence; for plant injury at 125 g/ha: 125 g ai/ha, visual rating about 10 d after treatment, read-out: Wheat plant response rating (0 to 100 scale); for plant injury at 500 g/ha: 500 g ai/ha, visual injury, 0 to 100 scale (0 no effect, 100 complete control), approx. 10 d, read-out: Plant response rating, Wheat
In short: as §1

[10] = tested on: ragweed (common ragweed, Ambrosia elatior); experiment: Test A postemergence; conditions: Ambrosia artemisiifolia, post-emergence, 240 h, Postemergence; for pest or weed control at 125 g/ha: 125 g ai/ha, visual rating about 10 d after treatment, read-out: Ragweed plant response rating (0 to 100 scale); for pest or weed control at 500 g/ha: 500 g ai/ha, visual injury, 0 to 100 scale (0 no effect, 100 complete control), approx. 10 d, read-out: Plant response rating, Ragweed
In short: as §1

[11] = tested on: Galium (catchweed bedstraw, Galium aparine); experiment: Test A postemergence; conditions: Galium, post-emergence, 240 h, Postemergence; for pest or weed control at 125 g/ha: 125 g ai/ha, visual rating about 10 d after treatment, read-out: Galium plant response rating (0 to 100 scale); for pest or weed control at 500 g/ha: 500 g ai/ha, visual injury, 0 to 100 scale (0 no effect, 100 complete control), approx. 10 d, read-out: Plant response rating, Galium
In short: as §1

[12] = tested on: ryegrass, Italian (Italian ryegrass, Lolium multiflorum); experiment: Test A postemergence; conditions: Lolium multiflorum, post-emergence, 240 h, Postemergence; for pest or weed control at 125 g/ha: 125 g ai/ha, visual rating about 10 d after treatment, read-out: Ryegrass, Italian plant response rating (0 to 100 scale); for pest or weed control at 500 g/ha: 500 g ai/ha, visual injury, 0 to 100 scale (0 no effect, 100 complete control), approx. 10 d, read-out: Plant response rating, Ryegrass, Italian
In short: as §1

[13] = tested on: blackgrass (Alopecurus myosuroides); experiment: Test A postemergence; conditions: Alopecurus myosuroides, post-emergence, 240 h, Postemergence; for pest or weed control at 125 g/ha: 125 g ai/ha, visual rating about 10 d after treatment, read-out: Blackgrass plant response rating (0 to 100 scale); for pest or weed control at 500 g/ha: 500 g ai/ha, visual injury, 0 to 100 scale (0 no effect, 100 complete control), approx. 10 d, read-out: Plant response rating, Blackgrass
In short: as §1

[14] = tested on: barnyardgrass (Echinochloa crus-galli); experiment: Test A postemergence; conditions: Echinochloa crus-galli, post-emergence, 240 h, Postemergence; for pest or weed control at 125 g/ha: 125 g ai/ha, visual rating about 10 d after treatment, read-out: Barnyardgrass plant response rating (0 to 100 scale, 0 no effect, 100 complete control); for pest or weed control at 500 g/ha: 500 g ai/ha, visual injury, 0 to 100 scale (0 no effect, 100 complete control), approx. 10 d, read-out: Plant response rating, Barnyardgrass
In short: as §1

| SMILES | pest or weed control at 125 g/ha [1] | pest or weed control at 500 g/ha [1] | pest or weed control at 125 g/ha (Kochia (Kochia scoparia) [2]) | pest or weed control at 500 g/ha (Kochia (Kochia scoparia) [2]) | pest or weed control at 125 g/ha [3] | pest or weed control at 500 g/ha [3] | pest or weed control at 125 g/ha [4] | pest or weed control at 500 g/ha [4] | pest or weed control at 125 g/ha [5] | pest or weed control at 500 g/ha [5] | pest or weed control at 125 g/ha [6] | pest or weed control at 500 g/ha [6] | pest or weed control at 125 g/ha [7] | pest or weed control at 500 g/ha [7] | pest or weed control at 125 g/ha (Kochia (Kochia scoparia) [8]) | pest or weed control at 500 g/ha (Kochia (Kochia scoparia) [8]) | plant injury at 125 g/ha (corn (Zea mays)) | Corn plant response rating (crop injury, 0 = no effect, 100 = complete kill) at 500 g/ha (corn (Zea mays)) | plant injury at 125 g/ha [9] | plant injury at 500 g/ha [9] | also measured |
| --- | --- | --- | --- | --- | --- | --- | --- | --- | --- | --- | --- | --- | --- | --- | --- | --- | --- | --- | --- | --- | --- |
| COc1cc([C@H]2CN(C)C(=O)[C@@H]2C(=O)Nc2cccc(F)c2F)ccc1F [Compound 1299] | 20% | 60% | 70% | 70% | 30% | 70% | 30% | 70% | 90% | 90% | 0% | 0% | 90% | 90% | 0% | 60% | 40% | 80% | 30% | 40% | pest or weed control at 125 g/ha [10]: 0%; pest or weed control at 500 g/ha [10]: 20%; pest or weed control at 125 g/ha [11]: 40%; pest or weed control at 500 g/ha [11]: 50%; pest or weed control at 125 g/ha [12]: 20%; pest or weed control at 500 g/ha [12]: 60%; pest or weed control at 125 g/ha [13]: 20%; pest or weed control at 500 g/ha [13]: 60%; pest or weed control at 125 g/ha [14]: 90%; pest or weed control at 500 g/ha [14]: 90% |
| COc1cc([C@H]2CN(C)C(=O)[C@@H]2C(=O)Nc2ccccc2SC)ccc1F [Compound 1301] | 0% | 30% | 30% | 60% | 0% | 20% | 0% | 0% | 30% | 90% | 0% | 0% | 20% | 20% | 0% | 50% | 0% | 0% | 0% | 0% | pest or weed control at 125 g/ha [10]: 0%; pest or weed control at 500 g/ha [10]: 0%; pest or weed control at 125 g/ha [11]: 20%; pest or weed control at 500 g/ha [11]: 60%; pest or weed control at 125 g/ha [12]: 0%; pest or weed control at 500 g/ha [12]: 0%; pest or weed control at 125 g/ha [13]: 0%; pest or weed control at 500 g/ha [13]: 0%; pest or weed control at 125 g/ha [14]: 20%; pest or weed control at 500 g/ha [14]: 90% |
| Cc1c(F)cccc1NC(=O)[C@H]1C(=O)NC[C@@H]1c1cccc2c1OC(F)(F)O2 [Compound 1305] | 0% | 0% | 0% | 0% | 0% | 0% | 0% | 0% | 70% | 90% | 0% | 0% | 80% | 90% | 0% | 0% | 0% | 0% | 0% | 20% | pest or weed control at 125 g/ha [10]: 0%; pest or weed control at 500 g/ha [10]: 0%; pest or weed control at 125 g/ha [11]: 0%; pest or weed control at 500 g/ha [11]: 0%; pest or weed control at 125 g/ha [12]: 0%; pest or weed control at 500 g/ha [12]: 0%; pest or weed control at 125 g/ha [13]: 0%; pest or weed control at 500 g/ha [13]: 0%; pest or weed control at 125 g/ha [14]: 60%; pest or weed control at 500 g/ha [14]: 80% |
